Measured values published in PMC5571359, “Screening the Medicines for Malaria Venture Pathogen Box across Multiple Pathogens Reclassifies Starting Points for Open-Source Drug Discovery” (Antimicrobial Agents and Chemotherapy, 2017).
Like-named read-outs stand apart in the source and are kept apart here.

Key:
[1] = test system: T. brucei brucei; details: ref Pbox supporting information; read-out: T.b. brucei Pbox IC50; cited from earlier work
[2] = test system: T. cruzi C4 β-galactosidase reporter parasite in MRC 5SV2 host cells; details: cited from earlier work
[3] = test system: T. brucei rhodesiense; details: ref Pbox supporting information, cited from earlier work; for IC50: read-out: T .b. rohdensie Pbox IC50
[4] = test system: L. infanium (macrophages); parameters: method as in Pbox supporting information; details: ref Pbox supporting information; cited from earlier work
[5] = test system: HEK293 cells; experiment: HEK293 resazurin cell cytotoxicity assay; details: for IC50 / inhibition at 20 µM: Homo sapiens, HEK293, read-out: HEK % Inhibition 20uM/IC50 Discovery Biology
[6] = test system: T. b. brucei 427 bloodstream trypanosomes; experiment: T. b. brucei resazurin viability assay; assay type: cell-based, Trypanosoma brucei brucei
[7] = test system: HepG2; details: cited from earlier work
[8] = test system: Plasmodium falciparum 3D7 asexual blood stage; experiment: microbe, parasite or virus in culture
[9] = test system: NF54-pfs16-LUC-GFP stage IV gametocytes; experiment: Plasmodium falciparum late stage gametocyte (LSG) image-based assay; assay type: cell-based
[10] = test system: T. cruzi intracellular amastigotes; experiment: Intracellular anti-Trypanosoma cruzi image-based assay (amastigotes); assay type: cell-based; details: for IC50 / Emax: Trypanosoma cruzi; for IC50: intracellular amastigotes, read-out: T cruzi Discovery Biology IC50; for Emax: PBox kinetoplastid set compounds active against T. cruzi alone, read-out: Emax against T. cruzi (subefficacious effect)
[11] = ref Pbox supporting information, read-out: T. cruzi Pbox IC50
[12] = Trypanosoma brucei; read-out: T b.brucei Discovery Biology IC50
[13] = Trypanosoma brucei; PBox compounds; read-out: IC50 T. brucei brucei (Discovery Biology)
[14] = HepG2, ref PBox supporting information
[15] = 3D7, read-out: Antiplasmodial IC50 (ABS), PBox compounds, P. falciparum 3D7
[16] = Plasmodium falciparum, NF54, read-out: Antiplasmodial IC50 (GAM / LSG), PBox compounds, stage IV gametocytes, single determination

Row | SMILES | IC50 [1] [µM] | IC50 [2, 11] [µM] | IC50 [3] [µM] | IC50 [4] [µM] | IC50 [5] [µM] | IC50 [6, 12] [µM] | HepG2 PBox CC20 [7, 14] [µM] | also measured
1 | CN1CCCN(C(c2ccccc2)c2ccc(Cl)cc2)CC1 (stereo not shown) [MMV004168] | 4.64 | 9.44 | 1.94 | 36.3 | – | – | – | –
2 | Cc1nn2c(O)c3c(nc2c1-c1ccc(F)cc1)CCCC3 [MMV099637] | 1.94 | 2.21 | 0.48 | 50.4 | > 20 | 4.43 | – | –
3 | CNC(=O)C1Cc2ccccc2N1C(=O)Cc1ccc(F)cc1 (stereo not shown) [MMV188296] | 0.49 | > 64 | 0.38 | > 64 | > 20 | 1.47 | – | –
4 | CCC(=O)Nc1ccccc1C(=O)Nc1ccccn1 [MMV202553] | 2.46 | > 64 | 1.31 | > 64 | > 20 | 1.01 | – | IC50 [6, 13]: 1 µM
5 | CCN(CC)S(=O)(=O)c1ccc(C(=O)Nc2cc(C)nn2-c2nc(C)c(C)c(=O)[nH]2)cc1 [MMV595321] | 5.3 | 1.96 | 1.7 | 6.87 | – | 4.34 | – | activity in the HEK293 cytotoxicity assay [5]: comparable activity; inhibition at 20 µM [5]: 74%
6 | CO[C@@H](C(=O)N1Cc2n[nH]c(NC(=O)c3ccc(N4CCN(C)CC4)cc3)c2C1)c1ccccc1 [MMV676600] | 1.02 | 6.48 | 0.37 | 4.06 | – | 1.34 | 4.8 | inhibition at 20 µM [5]: 45%
7 | c1ccc(Oc2ccc(-c3cc(N4CCNCC4)[nH]n3)cc2)cc1 [MMV687706] | 0.99 | 4.48 | 0.97 | 4.06 | > 20 | 5.05 | 6.4 | –
8 | c1ccc(Oc2ccc(-c3cc(C4CCOCC4)[nH]n3)cc2)cc1 [MMV687762] | 7.58 | 16.4 | 3.77 | > 32 | – | 1.79 | 10.8 | –
9 | CC1=Nc2ccc(Cl)cc2C(O)(c2ccc(C)cc2)N1CCN1CCCCC1 (stereo not shown) [MMV688279] | 0.98 | 4.04 | 0.43 | 4.06 | > 20 | 4.52 | 10.0 | IC50 [8, 15]: 0.32 µM; IC50 [9, 16]: 2.4 µM; IC50 ([9]; read-out: Antiplasmodial IC50 (GAM / LSG), PBox compounds, stage IV gametocytes, single determination): 2.35 µM
10 | c1cc(C2=NCCN2)cc(-c2cc(-c3ccc(C4=NCCN4)cc3)no2)c1 [MMV688361] | 5.63 | > 32 | 3 | > 32 | – | – | 4.5 | –
11 | COc1cc(C2=NCCN2)cc2cc(-c3ccc(C4=NCCN4)cc3)oc12 [MMV688362] | 14.5 | 13.3 | 0.78 | > 32 | > 20 | – | 14.3 | IC50 [8, 15]: 0.59 µM; IC50 ([9]; Plasmodium falciparum, NF54, read-out: Pf Stage IV GAMS Discovery Biology IC50, stage IV gametocytes): 6.67 µM
12 | NCCN(C(=O)c1ccc(Cl)cc1Cl)c1ccc(OCc2ccc(Cl)cc2)cc1 [MMV688371] | < 0.13 | 0.62 | < 0.13 | 0.63 | > 20 | 0.24 | – | activity against T. brucei rhodesiense [3]: demonstrated activity; IC50 [10]: 4.35 µM
13 | COc1cc(C2=NCCN2)ccc1-c1cn(-c2cccc(C3=NCCN3)c2)nn1 [MMV688407] | > 32 | 25 | 3.72 | > 32 | – | – | 22.9 | –
14 | CC1=Nc2ccc(Cl)cc2C(c2ccccc2)N1CCNC(=O)CN(C)C (stereo not shown) [MMV688410] | 3.78 | 17.1 | 3.11 | 10.1 | – | – | 16.4 | –
15 | CO[C@@H]1CN(c2ccc(C#CC3(O)CN4CCC3CC4)c(Cc3ccccc3)n2)C[C@H]1O (stereo partly shown) [MMV688415] | 16.1 | < 0.13 | 4 | 17.3 | > 20 | – | – | Emax [10]: < 100%; IC50 [10]: 0.1 µM; HepG2 PBox CC20 [7]: 38.4 µM
16 | COc1cc(C2=NCCN2)ccc1-n1cc(-c2cccc(C3=NCCN3)c2)nn1 [MMV688474] | > 32 | > 32 | 3.81 | > 32 | – | – | >80 | –
17 | N=C(N)c1ccc(-c2cc(-c3ccccc3)on2)cc1 [MMV688514] | 4.06 | 4.04 | 1.08 | 2.54 | > 20 | 3.53 | 2.6 | –
18 | COc1ccc(C2=NCCN2)cc1-c1cn(-c2cccc(C3=NCCN3)c2)nn1 [MMV688547] | > 32 | > 32 | 1.63 | > 32 | > 20 | – | >80 | IC50 [8, 15]: 1.02 µM
19 | CO/N=C(\C(=O)OC)c1ccccc1CO/N=C(\C)c1cccc(C(F)(F)F)c1 [MMV688754] | 33.6 | 1.94 | 26.2 | > 64 | > 20 | – | – | IC50 ([8]; 3D7, read-out: Antiplasmodial IC50 (ABS)): 0.19 µM; IC50 [9, 16]: 0.14 µM
20 | Cc1nn2c(=O)c3c([nH]c2c1-c1ccc(Cl)cc1)CCCC3 [MMV688776] | 0.5 | 0.72 | 0.14 | 44 | > 20 | 1.79 | – | IC50 ([2]; 7 days exposure, ref PBox supporting information, read-out: T. cruzi IC50 in the PBox supporting information file): < 1 µM; activity against T. cruzi at 8 μM in the Discovery Biology assay ([10]; 8 μM): no activity
21 | Cc1cccnc1NC(=O)c1cccc(OCc2c(C)noc2C)c1 [MMV688793] | 2.07 | > 64 | 0.65 | > 64 | > 20 | 1.16 | – | IC50 [6, 13]: 1.2 µM
22 | CS(=O)(=O)c1ccccc1C(=O)N(Cc1ccccc1)c1ccccc1 [MMV688798] | 0.56 | 35.4 | 0.4 | > 64 | > 20 | 0.5 | – | –
23 | CC(C)(C)C(O)C(Oc1ccc(-c2ccccc2)cc1)n1cncn1 (stereo not shown) [MMV688942, Bitertanol] | 32.9 | 0.055 | 28 | > 64 | > 20 | – | – | Emax [10]: < 100%; IC50 [10]: 0.08 µM
24 | CC1COC(Cn2cncn2)(c2ccc(Oc3ccc(Cl)cc3)cc2Cl)O1 (stereo not shown) [MMV688943, difenoconazole] | 32.5 | 0.015 | 26.2 | 44.7 | > 20 | – | – | Emax [10]: < 100%; IC50 [10]: 0.1 µM
25 | Clc1ccc(CN2CCN(C3=NCCN3)CC2)cc1Cl [MMV689060] | 31.6 | 6.57 | 30.1 | > 64 | – | – | – | –
26 | CC(=O)Nc1ccc(-c2noc(CC3CCCN(Cc4cccc(F)c4C)C3)n2)cc1 (stereo not shown) [MMV689061] | 32.3 | 2.8 | 25.1 | 1.59 | – | – | – | –
27 | COc1ccc(C2=NN(C3CCCCCC3)C(=O)[C@@H]3CC=CC[C@H]23)cc1OCCCCOc1ccc(-c2nn[nH]n2)cc1 [MMV690027] | 0.02 | – | – | – | > 20 | – | – | IC50 ([6]; Trypanosoma brucei, read-out: T b.brucei Discovery Biology IC50): 0.5 µM
28 | COc1ccc(C2=NN(C3CCCCCC3)C(=O)C2(C)C)cc1OCCCCOc1ccc(-c2nn[nH]n2)cc1 [MMV690028] | 0.79 | – | – | – | > 20 | 2.25 | – | –
29 | CCOC(=O)c1noc(N)c1-c1ccccc1 [MMV1236379] | 1.22 | > 64 | 0.46 | > 64 | – | – | – | –
